# Molecular target: hMAT2A (Homo sapiens (Human), UniProt P31153)
# Assay: Phosphate Sensor Fluorescence Assay (MAT2A enzyme inhibition)
# Type: biochemical
# Details: L-methionine 500 uM, ATP 500 uM, class symbols
# Summary of the method: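 Recombinant MAT2A preincubated 15 min at room temperature with compound, then reacted 1 h at room temperature with 500 uM L-methionine and 500 uM ATP in Tris pH 7.5 buffer containing PNP/7-MEG.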
# Chain of hMAT2A (P31153 whole entry): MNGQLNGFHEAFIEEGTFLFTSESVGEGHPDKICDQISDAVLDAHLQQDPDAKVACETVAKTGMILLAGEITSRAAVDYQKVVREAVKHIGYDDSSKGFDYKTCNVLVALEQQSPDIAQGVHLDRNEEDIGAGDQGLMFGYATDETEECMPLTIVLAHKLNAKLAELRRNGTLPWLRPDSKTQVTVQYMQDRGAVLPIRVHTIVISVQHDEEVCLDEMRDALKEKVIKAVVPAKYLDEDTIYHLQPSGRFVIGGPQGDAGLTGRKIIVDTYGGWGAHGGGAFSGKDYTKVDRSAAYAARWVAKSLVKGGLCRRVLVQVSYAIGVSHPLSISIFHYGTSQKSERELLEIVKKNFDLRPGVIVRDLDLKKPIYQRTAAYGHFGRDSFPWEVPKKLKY
row,IC50 [nM],SMILES
1,1000 to 10000,"CS(=O)(=O)Nc1nc(=O)n(-c2ccccc2)c2cc(Cl)ccc12 [Example 200, N-(7-chloro-2-oxo-1-phenyl-1,2-dihydroquinazolin-4-yl)methane-sulfonamide]"
2,< 200,"NC1CCN(c2nc(=O)n(-c3ccccc3)c3cc(Cl)ccc23)C1 (stereo not shown) [Example 201, 4-(3-aminopyrrolidin-1-yl)-7-chloro-1-phenylquinazolin-2(1H)-one]"
3,200 to 500,"CC(=O)Nc1nc(=O)n(-c2ccccc2)c2cc(Cl)ccc12 [Example 203, N-(7-chloro-2-oxo-1-phenyl-1,2-dihydroquinazolin-4-yl)acetamide]"
4,< 200,"CNC(=O)C1CN(c2nc(=O)n(-c3ccccc3)c3cc(Cl)ccc23)C1 [Example 204, 1-(7-chloro-2-oxo-1-phenyl-1,2-dihydroquinazolin-4-yl)-N-methyl-azetidine-3-carboxamide]"
5,< 200,"CN(CC(F)F)c1nc(=O)n(-c2ccccc2)c2cc(Cl)ccc12 [Example 205, 4-[(2,2-difluoroethyl)methylamino]-7-chloro-1-phenylhydroquinazolin-2-one]"
6,500 to 1000,CN(C)c1nc(=O)n(-c2cccc(NS(=O)(=O)C3(C)CC3)c2)c2cc(Cl)ccc12 [Example 211]
7,1000 to 10000,"CCOC(=O)c1ccc2c(=O)[nH]c(=O)n(-c3ccccc3)c2c1 [Example 213, ethyl 2,4-dioxo-1-phenyl-1,3-dihydro-quinazoline-7-carboxylate]"
8,< 200,"CNc1nc(=O)n(-c2ccn[nH]2)c2cc(Cl)ccc12 [Example 214, 7-chloro-4-(methylamino)-1-pyrazol-5-ylhydroquinazolin-2-one]"
9,200 to 500,"C[C@@]1(O)CCN(c2nc(=O)n(-c3ccccc3)c3cc(Cl)ccc23)C1 [Example 217, 4-((3R)-3-hydroxy-3-methylpyrrolidin-1-yl)-7-chloro-1-phenylhydroquinazolin-2-one]"
10,< 200,"CNc1nc(=O)n(-c2ccccc2Cl)c2cc(Cl)ccc12 [Example 218, 7-chloro-1-(2-chlorophenyl)-4-(methylamino)quinazolin-2(1H)-one]"
11,200 to 500,"CNc1nc(=O)n(-c2ccccc2C#N)c2cc(Cl)ccc12 [Example 219, 2-(7-chloro-4-(methylamino)-2-oxo-quinazolin-1(2H)-yl)benzonitrile]"
12,1000 to 10000,"CN(C)C(=O)CN(C)c1nc(=O)n(-c2ccccc2)c2cc(Cl)ccc12 [Example 220, 2-((7-chloro-2-oxo-1-phenyl-1,2-dihydroquinazolin-4-yl)(methyl)amino)-N,N-dimethylacetamide]"
13,1000 to 10000,"CNC(=O)CN(C)c1nc(=O)n(-c2ccccc2)c2cc(Cl)ccc12 [Example 221, 2-((7-chloro-2-oxo-1-phenyl-1,2-dihydroquinazolin-4-yl)(methyl)amino)-,N-methylacetamide]"
14,< 200,"O=c1nc(N2CC3CC3C2)c2ccc(Cl)cc2n1-c1ccccc1 (stereo not shown) [Example 222, 4-(3-azabicyclo[3.1.0]hex-3-yl)-7-chloro-1-phenylhydroquinazolin-2-one]"
15,< 200,"CC1CCN1c1nc(=O)n(-c2ccccc2)c2cc(Cl)ccc12 (stereo not shown) [Example 223, 7-chloro-4-(2-methylazetidin-1-yl)-1-phenylhydroquinazolin-2-one]"
16,< 200,"CNc1nc(=O)n(-c2ccccc2Br)c2cc(Cl)ccc12 [Example 225, 1-(2-bromophenyl)-7-chloro-4-(methylamino)quinazolin-2-one]"
17,< 200,"CNc1nc(=O)n(-c2ccccc2OC)c2cc(Cl)ccc12 [Example 226, 7-chloro-1-(2-methoxyphenyl)-4-(methylamino)hydroquinazolin-2-one]"

row,IC50 [nM],SMILES
1,< 200,"CN(C)c1nc(=O)n(-c2cccc(CCCc3ccccc3)c2)c2cc(Cl)ccc12 [Example 227, 4-(dimethylamino)-7-chloro-1-[3-(3-phenylpropyl)phenyl]hydroquinazolin-2-one]"
2,< 200,"COC1CCN(c2nc(=O)n(-c3ccccc3)c3cc(Cl)ccc23)C1 (stereo not shown) [Example 230, 7-chloro-4-(3-methoxypyrrolidin-1-yl)-1-phenylquinazolin-2(1H)-one]"
3,1000 to 10000,"CN(C)C(=O)CNc1nc(=O)n(-c2ccccc2)c2cc(Cl)ccc12 [Example 231, 2-[(7-chloro-2-oxo-1-phenyl-1,2-dihydroquinazolin-4-yl)amino]-N,N-dimethylacetamide]"
4,< 200,"O=c1nc(NCC2COC2)c2ccc(Cl)cc2n1-c1ccccc1 [Example 232, 7-chloro-4-[(oxetan-3-ylmethyl)amino]-1-phenylhydroquinazolin-2-one]"
5,< 200,"Cn1ccc(CNc2nc(=O)n(-c3ccccc3)c3cc(Cl)ccc23)n1 [Example 233, 7-chloro-4-1{[(1-methylpyrazol-3-yl)-methyl]amino}-1-phenylhydro-quinazolin-2-one]"
6,< 200,"CN(Cc1ccncc1)c1nc(=O)n(-c2ccccc2)c2cc(Cl)ccc12 [Example 234, 7-chloro-4-[methyl(pyridin-4-ylmethyl)-amino]-1-phenylhydroquinazolin-2-one]"
7,< 200,"CN(Cc1cccnc1)c1nc(=O)n(-c2ccccc2)c2cc(Cl)ccc12 [Example 235, 7-chloro-4-[methyl(pyridin-3-ylmethyl)-amino]-1-phenylhydroquinazolin-2-one]"
8,< 200,"CN(CC(F)(F)F)c1nc(=O)n(-c2ccccc2)c2cc(Cl)ccc12 [Example 237, 7-chloro-4-[methyl(2,2,2-trifluoroethyl)-amino]-1-phenylhydroquinazolin-2-one]"
9,< 200,"CC1(C)CCN(c2nc(=O)n(-c3ccccc3)c3cc(Cl)ccc23)C1 [Example 238, 4-(3,3-dimethylpyrrolidin-1-yl)-7-chloro-1-phenylhydroquinazolin-2-one]"
10,< 200,"O=c1nc(N2CC[C@@H](O)C2)c2ccc(Cl)cc2n1-c1ccccc1 [Example 239, 4-((3R)-3-hydroxypyrrolidinyl)-7-chloro-1-phenylhydroquinazolin-2-one]"
11,1000 to 10000,"NC(=O)[C@@H]1CCCN1c1nc(=O)n(-c2ccccc2)c2cc(Cl)ccc12 [Example 240, (2S)-1-(7-chloro-2-oxo-1-phenylhydro-quinazolin-4-yl)pyrrolidine-2-carboxamide]"
12,1000 to 10000,"NC(=O)[C@H]1CCCN1c1nc(=O)n(-c2ccccc2)c2cc(Cl)ccc12 [Example 241, (2R)-1-(7-chloro-2-oxo-1-phenylhydro-quinazolin-4-yl)pyrrolidine-2-carboxamide]"
13,500 to 1000,"Cc1nc(=O)n(-c2ccccc2)c2cc(Cl)ccc12 [Example 242, 7-chloro-4-methyl-1-phenylhydro-quinazolin-2-one]"
14,< 200,"CN(C)c1nc(=O)n(-c2ccccc2Cl)c2nc(C(F)(F)F)ccc12 [Example 244, 1-(2-chlorophenyl)-4-(dimethylamino)-7-(trifluoromethyl)pyrido[2,3-d]-pyrimidin-2(1H)-one]"
15,< 200,"O=c1nc(NC2CC3(CCC3)C2)c2ccc(C(F)(F)F)nc2n1-c1ccccc1Cl [Example 245, 1-(2-chlorophenyl)-4-(spiro[3.3]heptan-2-ylamino)-7-(trifluoromethyl)pyrido-[2,3-d]pyrimidin-2(1H)-one]"
16,< 200,O=c1nc(NCC2CC2)c2ccc(C(F)(F)F)nc2n1-c1ccccc1Cl [Example 246]
17,< 200,"O=c1nc(NCCCO)c2ccc(C(F)(F)F)nc2n1-c1ccccc1Cl [Example 247, 1-(2-chlorophenyl)-4-[(3-hydroxy-propyl)amino]-7-(trifluoromethyl)-pyrido[2,3-d]pyrimidin-2(1H)-one]"

# Same assay, conditions: L-methionine 500 uM, ATP 500 uM, numeric bound
row,IC50 [nM],SMILES
1,> 10000,"CNc1nc(=O)n(-c2ccccc2)c2cc(Cl)cc(OC3COC3)c12 [Example 202, 7-chloro-4-(methylamino)-5-oxetan-3-yloxy-1-phenylhydroquinazolin-2-one]"
2,> 10000,"O=C1CCN1c1nc(=O)n(-c2ccccc2)c2cc(Cl)ccc12 [Example 206, 7-chloro-4-(2-oxoazetidin-1-yl)-1-phenylhydroquinazolin-2-one]"
3,> 10000,"CNc1nc(=O)n(-c2ccccc2)c2cc(Cl)cc(-n3cccn3)c12 [Example 208, 7-chloro-4-(methylamino)-1-phenyl-5-(1H-pyrazol-1-yl)quinazolin-2(1H)-one]"
4,> 10000,"CNc1nc(=O)n(-c2ccccc2)c2cc(Cl)cc(-n3nccn3)c12 [Example 209, 7-chloro-4-(methylamino)-1-phenyl-5-(1,2,3-triazol-2-yl)quinazolin-2(1H)-one]"
5,> 10000,"O=c1[nH]c(=O)n(-c2nccc(O)n2)c2cc(Cl)ccc12 [Example 210, 7-chloro-1-(4-hydroxypyrimidin-2-yl)-1,3-dihydroquinazoline-2,4-dione]"
6,> 10000,"O=c1[nH]c(=O)n(-c2ccccc2)c2cc(CO)ccc12 [Example 212, 7-(hydroxymethyl)-1-phenyl-1,3-dihydroquinazoline-2,4-dione]"
7,> 10000,"Cn1ccnc1-n1c(=O)[nH]c(=O)c2ccc(Cl)cc21 [Example 215, 7-chloro-1-(1-methylimidazol-2-yl)-1,3-dihydroquinazoline-2,4-dione]"
8,> 10000,"O=C(O)[C@H]1CCCN1c1nc(=O)n(-c2ccccc2)c2cc(Cl)ccc12 [Example 224, (2R)-1-(7-chloro-2-oxo-1-phenylhydro-quinazolin-4-yl)pyrrolidine-2-carboxylic acid]"
9,> 10000,"CN(C)c1nc(=O)n(-c2ccccc2)c2cc(-c3cscn3)ccc12 [Example 228, 4-(dimethylamino)-1-phenyl-7-(1,3-thiazol-4-yl)hydroquinazolin-2-one]"
10,> 10000,"O=c1[nH]c(=O)n(-c2ccc(O)cc2)c2cc(Cl)ccc12 [Example 229, 7-chloro-1-(4-hydroxyphenyl)-1,3-dihydroquinazoline-2,4-dione]"
11,> 10000,"CN(Cc1ccccn1)c1nc(=O)n(-c2ccccc2)c2cc(Cl)ccc12 [Example 236, 7-chloro-4-[methyl(pyridin-2-ylmethyl)-amino]-1-phenylhydroquinazolin-2-one]"
12,> 10000,"CNc1nc(=O)n(-c2ccccc2)c2cc(Cl)nnc12 [Example 243, 3-chloro-8-(methylamino)-5-phenyl-5-hydropyrimidino[5,4-c]pyridazin-6-one]"

# — patent US11046691B1 (IDEAYA BIOSCIENCES, INC., priority 2018, dated 2021)
